Data on four molecules can be found in US7507704B1, “Receptor modulated cancer protocols” (priority 2002, dated 2009).

The test system of data set [1] is Metastatic Breast Cancer. Put plainly: Skipper log cell kill model projection for trastuzumab regimens (antagonistic scenario). The following applies: estimated from AC group, 23%÷68%.
In data set [2] the test system is Metastatic Breast Cancer. Particulars: cytotoxics q 21 days × 6, trastuzumab q week, actual Phase III data; cited from earlier work.
The conditions of data set [3]: rifampicin co-administered with erlotinib; cited from earlier work.
The conditions of data set [4]: in vivo; cited from earlier work.

`O=P1(N(CCCl)CCCl)NCCCO1` (stereo not shown) [C, cyclophosphamide]: the “"stand alone" tumor kill rate” value with Metastatic Breast Cancer [1] is 34%. Consider `CC(=O)O[C@H]1C(=O)[C@@]2(C)[C@H]([C@H](OC(=O)c3ccccc3)[C@]3(O)C[C@H](OC(=O)[C@H](O)[C@@H](NC(=O)c4ccccc4)c4ccccc4)C(C)=C1C3(C)C)[C@]1(OC(C)=O)CO[C@@H]1C[C@@H]2O` [Paclitaxel], for which the “Median Survival” value with Metastatic Breast Cancer [2] is given as 18.4 months.

Take `CO[C@H]1/C=C/O[C@@]2(C)Oc3c(C)c(O)c4c(O)c(c(/C=N/N5CCN(C)CC5)c(O)c4c3C2=O)NC(=O)/C(C)=C\C=C\[C@H](C)[C@H](O)[C@@H](C)[C@@H](O)[C@@H](C)[C@H](OC(C)=O)[C@@H]1C` [Rifampicin]: the “increased clearance of erlotinib” value in data set [3] is recorded as 3 fold. As for `CC/C(=C(\c1ccccc1)c1ccc(OCCN(C)C)cc1)c1ccccc1` [Tamoxifen], in data set [4], the “plasma concentration half life” value is 120 to 170 h.
